Laboratory results published in patent US12213969B2, “2-spiro-5- and 6-hydroxamic acid indanes as HDAC inhibitors” (Valo Health, Inc., priority 2016, dated 2025).

Target: T1, Full length human recombinant HDAC6 protein (Homo sapiens, UniProt Q9UBN7)
T1 construct: made in house
T1 sequence (Q9UBN7 1-1215): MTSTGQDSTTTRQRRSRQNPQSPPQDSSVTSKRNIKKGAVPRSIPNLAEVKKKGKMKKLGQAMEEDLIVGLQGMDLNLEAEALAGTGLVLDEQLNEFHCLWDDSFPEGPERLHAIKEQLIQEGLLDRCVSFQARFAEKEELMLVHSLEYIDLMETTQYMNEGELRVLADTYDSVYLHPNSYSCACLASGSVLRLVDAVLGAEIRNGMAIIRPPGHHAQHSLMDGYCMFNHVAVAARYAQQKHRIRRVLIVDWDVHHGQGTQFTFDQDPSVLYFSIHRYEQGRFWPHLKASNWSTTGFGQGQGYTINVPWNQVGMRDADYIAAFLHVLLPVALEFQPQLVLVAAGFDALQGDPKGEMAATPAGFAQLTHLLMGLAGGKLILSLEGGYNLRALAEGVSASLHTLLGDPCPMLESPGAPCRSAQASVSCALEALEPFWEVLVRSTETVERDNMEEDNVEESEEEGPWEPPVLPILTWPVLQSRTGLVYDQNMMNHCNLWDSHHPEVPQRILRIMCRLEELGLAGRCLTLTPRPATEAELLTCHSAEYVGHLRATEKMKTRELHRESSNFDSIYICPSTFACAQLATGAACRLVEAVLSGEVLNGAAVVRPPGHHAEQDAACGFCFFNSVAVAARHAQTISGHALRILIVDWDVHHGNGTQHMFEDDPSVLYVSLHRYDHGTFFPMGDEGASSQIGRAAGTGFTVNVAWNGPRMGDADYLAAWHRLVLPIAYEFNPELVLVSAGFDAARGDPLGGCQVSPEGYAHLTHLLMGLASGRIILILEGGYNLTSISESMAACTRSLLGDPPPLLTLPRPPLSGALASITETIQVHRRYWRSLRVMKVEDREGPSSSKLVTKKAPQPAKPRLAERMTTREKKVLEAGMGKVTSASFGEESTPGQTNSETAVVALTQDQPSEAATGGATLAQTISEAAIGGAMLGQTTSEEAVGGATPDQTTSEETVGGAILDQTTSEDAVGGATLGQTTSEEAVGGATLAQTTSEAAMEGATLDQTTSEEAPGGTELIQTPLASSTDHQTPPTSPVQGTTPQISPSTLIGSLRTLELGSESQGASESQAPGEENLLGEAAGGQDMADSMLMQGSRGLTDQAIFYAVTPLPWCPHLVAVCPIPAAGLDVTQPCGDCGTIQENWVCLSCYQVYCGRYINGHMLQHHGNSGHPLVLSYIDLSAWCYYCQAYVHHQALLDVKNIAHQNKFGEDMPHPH
Test: In vitro histone deacetylase assay: enzymatic HDAC6 electrophoretic mobility shift assay
Type: biochemical
Conditions: peptide substrate RHKK(Ac)-NH2 2 μM, enzyme 1 nM, 25° C., 12 concentrations; read-out: HDAC6 activity range (IC50)
Description: The enzymatic HDAC6 assay was performed using electrophoretic mobility shift assay. Full length human recombinant HDAC6 protein was expressed in baculoviral system and purified by affinity chromatography. The enzymatic reactions were assembled in 384 well plates in a total volume of 25 μL in a reaction buffer composing: 100 mM HEPES, pH 7.5, 25 mM KCl, 0.1% bovine serum albumin, 0.01% Triton X-100, 1% DMSO (from compounds) 2 μM of the fluorescently labeled peptide substrate and enzyme. The enzyme was added at a final concentration of 1 nM. The peptide substrate RHKK(Ac)-NH2 was used. The compounds were tested at 12 concentrations spaced by 3× dilution intervals. Negative control samples (0%-inhibition in the absence of inhibitor) and positive control samples (100%-inhibition) were assembled in replicates of four in each assay plate. The reactions were incubated at 25° C. and quenched by the addition of 45 μL of termination buffer (100 mM HEPES, pH 7.5, 0.01% Triton X-100, 0.05% SDS).
The terminated assay plates were analyzed on LabChip® 3000 microfluidic electrophoresis instrument (Perkin Elmer/Caliper Life Sciences). The fluorescence intensity of the electrophoretically separated de-acetylated product and substrate peptide was measured. Activity in each sample was determined as the product to sum ratio (PSR): P/(S+P), where P is the peak height of the product peptide and S is the peak height of the substrate peptide. Percent inhibition (Pinh) is determined using the following equation:
Pinh=(PSR0%−PSRinh)/(PSR0%−PSR100%)*100, where PSRinh is the product sum ratio in the presence of inhibitor, PSR0% is the average product sum ration in the absence of inhibitor and PSR100% is the average product sum ratio in 100%-inhibition control samples. The IC50 values of inhibitors were determined by fitting the %-inhibition curves with 4 parameter dose-response model using XLfit 4 software.
As set forth in Table-7, below, IC50 values are defined as follows: IC50≤0.01 μM (+++); IC50>0.01 μM and ≤0.05 μM (++); IC50>0.05 μM (+).

| IC50 [nM] | Structure (SMILES) |
| --- | --- |
| 10 to 50 | CC(=O)N1CC[C@]2(Cc3ccc(C(=O)NO)cc3C2)C1 [Compound I-28, (R)-1′-acetyl-N-hydroxy-1,3-dihydrospiro[indene-2,3′-pyrrolidine]-5-carboxamide] |
| 10 to 50 | CC(C)N1CC[C@]2(Cc3ccc(C(=O)NO)cc3C2)C1=O [Compound I-3, (R)—N-hydroxy-1′-isopropyl-2′-oxo-1,3-dihydrospiro[indene-2,3′-pyrrolidine]-5-carboxamide] |
| > 50 | CCN1CC[C@@]2(Cc3ccc(C(=O)NO)cc3C2)C1=O [Compound I-6, (S)-1′-ethyl-N-hydroxy-2′-oxo-1,3-dihydrospiro[indene-2,3′-pyrrolidine]-5-carboxamide] |
| 10 to 50 | Cc1ccccc1CN1CC[C@@]2(Cc3ccc(C(=O)NO)cc3C2)C1=O [Compound I-10, (S)—N-hydroxy-1′-(2-methylbenzyl)-2′-oxo-1,3-dihydrospiro[indene-2,3′-pyrrolidine]-5-carboxamide] |
| 10 to 50 | O=C(NO)c1ccc2c(c1)C[C@@]1(CCN(c3ccc(F)cc3)C1=O)C2 [Compound I-15, (R)-1′-(4-fluorophenyl)-N-hydroxy-2′-oxo-1,3-dihydrospiro[indene-2,3′-pyrrolidine]-5-carboxamide] |
| 10 to 50 | O=C(NO)c1ccc2c(c1)C[C@@]1(CCN(Cc3ccccc3)C1)C2 [Compound I-26, (R)-1′-benzyl-N-hydroxy-1,3-dihydrospiro[indene-2,3′-pyrrolidine]-5-carboxamide] |
| 10 to 50 | O=C(NO)c1ccc2c(c1)C[C@]1(CCN(Cc3ccccc3)C1)C2 [Compound I-27, (S)-1′-benzyl-N-hydroxy-1,3-dihydrospiro[indene-2,3′-pyrrolidine]-5-carboxamide] |
| 10 to 50 | O=C(NO)c1ccc2c(c1)C[C@]1(CCN(c3ccccc3)C1=O)C2 [Compound I-14, (S)—N-hydroxy-2′-oxo-1′-phenyl-1,3-dihydrospiro[indene-2,3′-pyrrolidine]-5-carboxamide] |
| 10 to 50 | O=C(NO)c1ccc2c(c1)C[C@]1(CCN(c3ccccn3)C1=O)C2 [Compound I-20, (S)—N-hydroxy-2′-oxo-1′-(pyridin-2-yl)-1,3-dihydrospiro[indene-2,3′-pyrrolidine]-5-carboxamide] |
| 10 to 50 | CC(C)CN1CC[C@]2(Cc3ccc(C(=O)NO)cc3C2)C1=O [Compound I-7, (R)—N-hydroxy-1′-isobutyl-2′-oxo-1,3-dihydrospiro[indene-2,3′-pyrrolidine]-5-carboxamide] |
| 10 to 50 | CC(C)CN1CC[C@@]2(Cc3ccc(C(=O)NO)cc3C2)C1=O [Compound I-8, (S)—N-hydroxy-1′-isobutyl-2′-oxo-1,3-dihydrospiro[indene-2,3′-pyrrolidine]-5-carboxamide] |
| ≤ 10 | O=C(NO)c1ccc2c(c1)C[C@@]1(CCCN(Cc3ccccc3)C1=O)C2 [Compound I-34, (R)-1′-benzyl-N-hydroxy-2′-oxo-1,3-dihydrospiro[indene-2,3′-piperidine]-5-carboxamide] |
| ≤ 10 | O=C(NO)c1ccc2c(c1)C[C@]1(CCN(C(=O)c3ccccc3)C1)C2 [Compound I-31, (S)-1′-benzoyl-N-hydroxy-1,3-dihydrospiro[indene-2,3′-pyrrolidine]-5-carboxamide] |
| ≤ 10 | O=C(NO)c1ccc2c(c1)C[C@@]1(CCN(c3cccnc3)C1=O)C2 [Compound I-17, (R)—N-hydroxy-2′-oxo-1′-(pyridin-3-yl)-1,3-dihydrospiro[indene-2,3′-pyrrolidine]-5-carboxamide] |
| ≤ 10 | O=C(NO)c1ccc2c(c1)C[C@@]1(CCN(Cc3ccccc3)C1=O)C2 [Compound I-11, (R)-1′-benzyl-N-hydroxy-2′-oxo-1,3-dihydrospiro[indene-2,3′-pyrrolidine]-5-carboxamide] |
| 10 to 50 | CCN1CC[C@]2(Cc3ccc(C(=O)NO)cc3C2)C1=O [Compound I-5, (R)-1′-ethyl-N-hydroxy-2′-oxo-1,3-dihydrospiro[indene-2,3′-pyrrolidine]-5-carboxamide] |
| 10 to 50 | CN1CCC[C@@]2(Cc3ccc(C(=O)NO)cc3C2)C1=O [Compound I-33, (S)—N-hydroxy-1′-methyl-2′-oxo-1,3-dihydrospiro[indene-2,3′-piperidine]-5-carboxamide] |
| 10 to 50 | O=C(NO)c1ccc2c(c1)C[C@@]1(CCN(c3ccncc3)C1=O)C2 [Compound I-21, (R)—N-hydroxy-2′-oxo-1′-(pyridin-4-yl)-1,3-dihydrospiro[indene-2,3′-pyrrolidine]-5-carboxamide] |
| 10 to 50 | O=C(NO)c1ccc2c(c1)C[C@]1(CCN(c3ccncc3)C1=O)C2 [Compound I-22, (S)—N-hydroxy-2′-oxo-1′-(pyridin-4-yl)-1,3-dihydrospiro[indene-2,3′-pyrrolidine]-5-carboxamide] |
| 10 to 50 | Cc1ccccc1CN1CC[C@]2(Cc3ccc(C(=O)NO)cc3C2)C1=O [Compound I-9, (R)—N-hydroxy-1′-(2-methylbenzyl)-2′-oxo-1,3-dihydrospiro[indene-2,3′-pyrrolidine]-5-carboxamide] |
| 10 to 50 | CN1CCC[C@]2(Cc3ccc(C(=O)NO)cc3C2)C1=O [Compound I-32, (R)—N-hydroxy-1′-methyl-2′-oxo-1,3-dihydrospiro[indene-2,3′-piperidine]-5-carboxamide] |
| ≤ 10 | O=C(NO)c1ccc2c(c1)C[C@@]1(CCCN(c3ccccc3)C1=O)C2 [Compound I-36, (R)—N-hydroxy-2′-oxo-1′-phenyl-1,3-dihydrospiro[indene-2,3′-piperidine]-5-carboxamide] |
| 10 to 50 | O=C(NO)c1ccc2c(c1)C[C@@]1(CCN(c3ccccc3)C1=O)C2 [Compound I-13, (R)—N-hydroxy-2′-oxo-1′-phenyl-1,3-dihydrospiro[indene-2,3′-pyrrolidine]-5-carboxamide] |
| 10 to 50 | CN1CC[C@]2(Cc3ccc(C(=O)NO)cc3C2)C1 [Compound I-24, (R)—N-hydroxy-1′-methyl-1,3-dihydrospiro[indene-2,3′-pyrrolidine]-5-carboxamide] |
| 10 to 50 | CN1CC[C@]2(Cc3ccc(C(=O)NO)cc3C2)C1=O [Compound I-1, (R)—N-hydroxy-1′-methyl-2′-oxo-1,3-dihydrospiro[indene-2,3′-pyrrolidine]-5-carboxamide] |
| 10 to 50 | CN1CC[C@@]2(Cc3ccc(C(=O)NO)cc3C2)C1=O [Compound I-2, (S)—N-hydroxy-1′-methyl-2′-oxo-1,3-dihydrospiro[indene-2,3′-pyrrolidine]-5-carboxamide] |
| 10 to 50 | O=C(NO)c1ccc2c(c1)C[C@]1(CCN(c3cccnc3)C1=O)C2 [Compound I-18, (S)—N-hydroxy-2′-oxo-1′-(pyridin-3-yl)-1,3-dihydrospiro[indene-2,3′-pyrrolidine]-5-carboxamide] |
| ≤ 10 | O=C(NO)c1ccc2c(c1)C[C@@]1(CCN(C(=O)c3ccccc3)C1)C2 [Compound I-30, (R)-1′-benzoyl-N-hydroxy-1,3-dihydrospiro[indene-2,3′-pyrrolidine]-5-carboxamide] |
